Non-standard residues stand in square brackets, D forms with d. Residues, ends and D or L forms follow the SMILES beside them. *: point of attachment. Phe(F5) = N[C@@H](Cc1c(F)c(F)c(F)c(F)c1F)C(=O)O; hArg = N=C(N)NCCCC[C@H](N)C(=O)O; 12Ado = NCCCCCCCCCCCC(=O)O; Nle = CCCC[C@H](N)C(=O)O; Orn = NCCC[C@H](N)C(=O)O; Abu = CC[C@H](N)C(=O)O; PhAc = O=C(Cc1ccccc1)*
Assays:
Type in all cases: in vivo
[1] = test system: pancreatic cancer CFPAC-1 xenograft; experiment: Xenograft tumor growth in nude mice, CFPAC-1; conditions: Table 4I, Pancreatic Ca CFPAC-1, 7 weeks, 5 μg/day s.c.
Method: (§1) The peptides' activity was compared with GHRH antagonist MIA-602. All statistical analyzses were performed from comparing GHRA antagonists to non-treated tumor (control).
(§2) Peptides and chemicals. GHRH antagonists MIA-602 and AVR-GHRH antagonists (see Table 2 above) were synthesized by solid phase methods and purified by HPLC. The peptides were dissolved in DMSO and further diluted in 10% 1,2-propanediol. The final concentration of peptides was 50 µg/ml in 10% 1,2-propanediol containing 0.1% of DMSO.
(§3) Cell culture. Human cancer cell lines including pancreatic (PANC-1 and CFPAC-1), lung (HCC827 and H460), stomach (NCI-N87), prostate (PC3), brest (MX-1 and HCC-1806), colorectal (HT-29), and ovarian (SK-OV-3 and OVCAR-3) were obtained from the American Type Culture Collection (ATCC) and cultured at 37° C. in a humidified 95% air/5% CO2 atmosphere in the medium recommended by ATCC.
(§4) Xenograft models of human cancers in nude mice. Female athymic (NCr nu/nu) nude mice, 5- to 6-weeks-old, obtained from the Envigo labs (Tampa, Fla.), were housed in laminar airflow cabinets under pathogen-free conditions with a 12-h light/12-h dark schedule, and were fed autoclaved standard chow and water. To generate mice with xenografted tumors, tumor xenografts were initiated by subcutaneous (s.c.) injection of 107 human cancer cells into female nude mice. After about 4 weeks the resulting tumors were dissected and collected after removing necrosis tissues. The tumors were then cut into particles with size of 3 mm3 and transplanted s.c. by trocar needle into experimental animals. When tumors grew to the size of 50-60 mm3 (by volume), mice were randomized into groups and treated daily for 4-8 weeks by subcutaneous administration of 5 μg of GHRH antagonists MIA-602 or AVR-compounds (2-10 μg as indicated), or vehicle solutions (0.1% DMSO in 10% 1,2-propanediol) respectively. Tumor sizes were measured weekly.
(§5) Statistical analysis. One-way ANOVA followed by Bonferroni comparison were performed. Data are expressed as Mean±SEM. To determine statistical significance between animal groups, two-tailed Student's t-test was conducted. Differences were considered significant when p<0.05.
(§6) Results. […] FIG. 1A-N represents in vivo inhibition of tumor growth during the treatment with GHRH antagonist MIA-602 and selected AVR antagonists in nude mice xenografted with various human tumors including pancreatic cancer PANC-1 (FIG. 1A) and CFPAC-1 (FIG. 1I); lung cancer HCC827 (FIGS. 1B, C) and H460 (FIG. 1H); stomach cancer N87 (FIGS. 1D-F); colon cancer HT-29 (FIG. 1G); breast cancer MX-1 and HCC-1806 (FIGS. 1J, K); ovarian cancer SK-OV-3 and OVACAR-3 (FIGS. 1 L, M) and prostate cancer PC3 (FIG. 1N). See also Table 5.

[2] = test system: lung cancer H460 xenograft; experiment: Xenograft tumor growth in nude mice, H460; conditions: Table 4H, Lung Ca H460, 4 weeks, 5 μg/day s.c.
Method: as §1, §2, §3, §4, §5, §6

[3] = test system: colon cancer HT-29 xenograft; experiment: Xenograft tumor growth in nude mice, HT-29; conditions: Table 4G, Colon Ca HT-29, 6 weeks, 5 μg/day s.c.
Method: as §1, §2, §3, §4, §5, §6

[4] = test system: breast cancer MX-1 xenograft; experiment: Xenograft tumor growth in nude mice, MX-1; conditions: Table 4J, Breast Ca MX-1, 4 weeks, 5 μg/day s.c.
Method: as §1, §2, §3, §4, §5, §6

[5] = test system: breast cancer HCC-1806 xenograft; experiment: Xenograft tumor growth in nude mice, HCC-1806; conditions: Table 4K, Breast Ca HCC-1806, 5 weeks, 5 μg/day s.c.
Method: as §1, §2, §3, §4, §5, §6

[6] = test system: ovarian cancer OVCAR-3 xenograft; experiment: Xenograft tumor growth in nude mice, OVCAR-3; conditions: Table 4M, Ovarian Ca OVCAR-3, 9 weeks, 5 μg/day s.c.
Method: as §1, §2, §3, §4, §5, §6

[7] = test system: prostate cancer PC3 xenograft; experiment: Xenograft tumor growth in nude mice, PC3; conditions: Table 4N, Prostate Ca PC3, 8 weeks, 5 μg/day s.c.
Method: as §1, §2, §3, §4, §5, §6

CCCC[C@H](NC(=O)[C@@H](NC(=O)[C@H](CC(=O)O)NC(=O)[C@H](CCC(N)=O)NC(=O)[C@H](CC(C)C)NC(=O)[C@H](CC(C)C)NC(=O)[C@H](CCCN)NC(=O)[C@H](Cc1c[nH]cn1)NC(=O)[C@H](C)NC(=O)[C@H](CO)NC(=O)[C@H](CC(C)C)NC(=O)[C@H](CCC(N)=O)NC(=O)[C@H](CC)NC(=O)[C@H](CC(C)C)NC(=O)[C@@H](NC(=O)[C@H](CCCN)NC(=O)[C@H](Cc1c[nH]cn1)NC(=O)[C@H](Cc1ccc(OC)cc1)NC(=O)[C@H](CCCCNC(=N)N)NC(=O)[C@H](C)NC(=O)[C@@H](NC(=O)[C@H](Cc1c(F)c(F)c(F)c(F)c1F)NC(=O)[C@@H](NC(=O)[C@H](C)NC(=O)[C@H](CC(=O)O)NC(=O)[C@@H](CCCNC(=N)N)NC(=O)[C@H](Cc1ccc(O)cc1)NC(=O)CCCCCCCCCCCNC(=O)Cc1ccccc1)[C@@H](C)CC)[C@@H](C)O)C(C)C)[C@@H](C)CC)C(=O)N[C@H](CCCNC(=N)N)C(=O)N[C@@H](CCCCNC(=N)N)C(N)=O [MIA-602, PhAC-Ada, Tyr D-Arg, Asp, Ala, Ile, 5FPhe, Thr, Ala, Har, Tyr(Me), His, Orn, Val, Leu, Abu, Gin, Leu, Ser, Ala, His, Om, Leu, Leu, Gin, Asp, Ile; Nle, D-Arg, Har NH2, reference compound] ({PhAc-12Ado}-Y[dR]DAI[Phe(F5)]TA[hArg]Y(Me)H[Orn]VL[Abu]QLSAH[Orn]LLQDI[Nle][dR][hArg]-NH2)
Tumor Growth % [1]: 1587.5%
% Inhibition ([1]; vs control): 19.5%
Tumor Growth % [2]: 1602.7%
% Inhibition ([2]; vs control): 52.6%
Tumor Size (mm^3) [3]: 582.10 mm^3
% Inhibition ([3]; vs control): 16.5%
Tumor Growth % [4]: 677.3%
% Inhibition ([4]; vs control): 39.2%
Tumor Growth % [5]: 529.4%
% Inhibition ([5]; vs control): 55.7%
Tumor Size (mm3) [6]: 267.2 mm3
% Inhibition ([6]; vs control): 44.4%
Tumor Size (mm3) [7]: 450.9 mm3
% Inhibition ([7]; vs control): 45.5%
